pEC50: −log10 of the molar value. Like-named read-outs stand apart in the source and are kept apart here.

The test system of this assay is SMN2-luciferase reporter. As to the kind of experiment: SMN2-luciferase reporter assay (clonal HEK-293 SMN2-luc cells). It is filed as cell-based, human. Also noted: % activation: concentration or dose not given beside the values. The settings on record: for % activation: Table 5; for pEC50: read-out: Ec50; for Emax: read-out: Max % Activity. On the procedure: The reporter cell lines were plated at 50,000 cells per well in 96-well plates and incubated overnight. Compounds were added to each well and incubated at 37° C. overnight. The final DMSO concentration was 0.1%. Luciferase activity was assayed using either STEADYGLO (PROMEGA E2510) or DUALGLO (PROMEGA E2920) luciferase using the WALLAC ENVISION multilabel reader. For detailed assay conditions see Table 2A. All data points were transformed from CPS to percent increase over basal expression in the treated control wells (DMSO or H2O as appropriate).
Plates were sealed with porous paper tape and incubated for 24 hours. […] For comparison, data points were transformed from CPS to percent activation over basal expression in the DMSO treated control wells.
For comparison, all data points are expressed as percent increase over basal luciferase expression in the control cells.

The mark [1] stands for this setting: Homo sapiens, HEK293, reporter assay, Table 6.

Regarding `CCOC(=O)C1C(=O)Nc2cc(OC)c(OC)c(OC)c2C1c1cc(Cl)ccc1F` (stereo not shown) [LDN-212388], the Active entry (reporter assay, Table 6) was “No”.
Take `O=C(Nc1nc2c(s1)Cc1ccccc1-2)C1=COCCO1` [Compound 110181]: the “% activation” value (reporter assay) was 120%.
As for `COc1cc2c(c(OC)c1OC)C(c1ccc(Cl)cn1)CC(=O)N2` (stereo not shown) [LDN-212392], the Active entry (reporter assay, Table 6) is “No”.
Regarding `CC(C)c1cc(C(=O)Nc2ccc3c(c2)OCO3)no1` [LDN-75676], under setting [1], the pEC50 was 5.59 and the Emax amounted to 337%. Moreover, for the setting “reporter assay”, the “% activation” value amounted to 136%. Moreover, the Active entry (reporter assay, Table 6) is “Yes”.
In the case of `COc1cc2c(c(OC)c1OC)C(c1ccnc(Cl)c1)CC(=O)N2` (stereo not shown) [LDN-212393], the Active entry (reporter assay, Table 6) is on record as “No/Weak”.
Turning to `CC1CC(C(=O)Nc2ccc(Cl)cc2F)=NO1` (stereo not shown) [CAL-6], under setting [1], the pEC50 was 5.19 and the Emax came out at 180%. The Active entry (reporter assay, Table 6) is “Yes”.
As to `CC1CC(C(=O)Nc2cccnc2)=NO1` (stereo not shown) [CAL-9], the Active entry (reporter assay, Table 6) is “No”.
Regarding `COc1cc(Br)c(C2CC(=O)Nc3cc(OC)c(OC)c(OC)c32)cc1OC` (stereo not shown) [CAL-51], the Active result (reporter assay, Table 6) is given as “No”.
As to `Cn1c(C(=O)Nc2cc(C(C)(C)C)on2)cc2ccccc21` [LDN-211910], under setting [1], the pEC50 was 6.15 and the Emax turned out to be 100%. Under “reporter assay, Table 6”, the Active entry was “Yes”.
In the case of `CC1CC(C(=O)NC2CCCc3ccccc32)=NO1` (stereo not shown) [CAL-1], for the setting “reporter assay, Table 6”, the Active result was “No”.
In the case of `COc1cc2c(c(OC)c1OC)C(c1cccc(Cl)c1Cl)CC(=O)N2` (stereo not shown) [CAL-56], under “reporter assay, Table 6”, the Active result is reported as “No”.
The same measure, in the same setting: the entry for `COc1ccc(Cl)cc1NC(=O)c1cc(C(C)C)on1` [CAL-29] is “No”; for `O=C(Nc1nnc(-c2ccccc2)s1)c1ccc(F)c(Cl)c1` [LDN-211982] it is “No”.
On to `Brc1ccc(-c2cn3ccccc3n2)cc1` [Compound 66278], for which the “% activation” value (reporter assay) is listed as 114%.
Turning to `Cc1cnc(NC(=O)c2ccc(F)c(Cl)c2)s1` [LDN-211985], under setting [1], the pEC50 is 6.10 and the Emax amounted to 150%. The Active entry (reporter assay, Table 6) is “Yes”.
For the compound `CC(C)(C)c1cc(NC(=O)c2ccc(F)c(Cl)c2)on1` [LDN-211861], under setting [1], the pEC50 is 5.43 and the Emax worked out at 100%. Further, the Active entry (reporter assay, Table 6) is recorded as “Yes”.
On the same counts, the results for `O=C(Nc1ccc2c(c1)OCO2)c1cc(C2CC2)on1` [CAL-33] are 5.77, 217% and “Yes”.
As to `COc1cc2c(c(OC)c1OC)C(c1cc(Cl)ccc1F)CC(=O)N2` (stereo not shown) [LDN-213769], where the note is “reporter assay, Table 6”, the Active entry was “No”.
The same measure, in the same setting: the entry for `O=C(Nc1ccc(F)c(Cl)c1)c1noc(C2CC2)c1[N+](=O)[O-]` [CAL-38] is “No”; for `COc1cc2c(c(OC)c1OC)C(c1ccc(Cl)cc1Cl)CC(=O)N2` (stereo not shown) [LDN-76074] it is “No/Weak”; for `COc1ccc2c(c1OC)C(c1cc(Br)ccc1F)CC(=O)N2` (stereo not shown) [CAL-23] it is “No”.
Same read-out and setting: next, `CC(C)(C)c1cc(C(=O)Nc2ccc(F)c(Cl)c2)no1` [LDN-211858]: “No”.
In the case of `CC(C)c1cc(C(=O)Nc2ccc(F)c(Cl)c2)n(C)n1` [LDN-211857], the Active entry (reporter assay, Table 6) is reported as “No”.
On the same count and under the same terms, next, `CC(C)(C)c1c[nH]c(NC(=O)c2ccc(F)c(Cl)c2)n1` [LDN-212012]: “No”; `COc1cc2c(c(OC)c1OC)C(c1cccc(-c3ccccc3)c1)CC(=O)N2` (stereo not shown) [LDN-212267]: “No”.
For the compound `O=C(Nc1ccc(F)c(Cl)c1)c1cc(Cc2ccccc2)on1` [LDN-211855], under setting [1], the pEC50 is 5.82 and the Emax worked out at 125%. Moreover, for the setting “reporter assay, Table 6”, the Active entry is “Yes”.
On to `COc1cc2c(c(OC)c1OC)C(c1cc(Br)ccc1F)CC(=O)N2C` (stereo not shown) [LDN-212263], for which the Active result (reporter assay, Table 6) was “No”.
Take `CC1CC(C(=O)Nc2ccc(F)cc2)=NO1` (stereo not shown) [CAL-5]: under setting [1], the pEC50 was 5.00 and the Emax was determined as 108%. Further, where the note is “reporter assay, Table 6”, the Active result was “Yes”.
On to `COc1cc2c(c(OC)c1OC)C(c1cc(Cl)ccc1F)NC(=O)N2` (stereo not shown) [LDN-213767], for which, for the setting “reporter assay, Table 6”, the Active entry is “Yes”, the “Max % Activity” value is listed as 125% and the pEC50 is 5.08.
As for `COc1cc2c(c(OC)c1OC)C(c1cccnc1Cl)CC(=O)N2` (stereo not shown) [LDN-212390], for the setting “reporter assay, Table 6”, the Active result is recorded as “No”.
For the compound `COc1cc2c(c(OC)c1OC)C(c1c(F)cccc1Cl)CC(=O)N2` (stereo not shown) [CAL-53], under setting [1], the pEC50 is 4.04 and the Emax came out at 27%. In addition, the Active result (reporter assay, Table 6) is recorded as “Yes”.
Consider `O=C(Nc1ccc(F)c(Cl)c1)c1cc(C2CCCCC2)on1` [LDN-211829], for which the Active entry (reporter assay, Table 6) is on record as “No/Weak”.
As for `O=C(Nc1cc(C2(O)CCC2)ccn1)c1ccc(F)c(Cl)c1` [LDN-212256], under setting [1], the pEC50 was 6.40 and the Emax was determined as 114%. Also, for the setting “reporter assay, Table 6”, the Active entry is listed as “Yes”.
For `COC1=CC2NC(=O)CC(c3cc([N+](=O)[O-])ccc3F)C2C(OC)=C1OC` (stereo not shown) [LDN-212354], for the setting “reporter assay, Table 6”, the Active entry is “No/Weak”.
The same measure, in the same setting: the entry for `CC(C)c1cc(C(=O)NCc2ccc(F)c(Cl)c2)no1` [LDN-211834] is “No”; for `COC1=CC2NC(=O)CC(c3cc(C(N)O)ccc3F)C2C(OC)=C1OC` (stereo not shown) [LDN-212358] it is “No”.
As for `CC(C)c1cc(C(=O)Nc2ccc(F)c(Cl)c2)n[nH]1` [LDN-211830], where the note is “reporter assay, Table 6”, the Active entry is reported as “No”.
Consider `COc1cc2c(c(OC)c1OC)C(c1cc(F)ccc1F)CC(=O)N2` (stereo not shown) [LDN-212353], for which, where the note is “reporter assay, Table 6”, the Active result is recorded as “No/Weak”.
`CC(C)c1nc(C(=O)Nc2ccc(F)c(Cl)c2)cs1` [LDN-211986]: under setting [1], the pEC50 is 5.82 and the Emax amounted to 100%. In addition, for the setting “reporter assay, Table 6”, the Active entry is on record as “Yes”.
`Cc1c(C(=O)NCCC(C)C)oc2ccc3c(c12)C(O)CC(C)(C)O3` (stereo not shown) [Compound 79199]: under “reporter assay”, the “% activation” value is 102%.
`O=C(Nc1ccc(F)c(Cl)c1)c1cc(C2CCCC2)on1` [LDN-211828]: under setting [1], the pEC50 is 4.70 and the Emax came to 100%. The Active entry (reporter assay, Table 6) was “Yes”.
Turning to `COc1cc2c(c(OC)c1OC)C(c1cc(Cl)ccc1F)C(C)C(=O)N2` (stereo not shown) [LDN-213773], for the setting “reporter assay, Table 6”, the Active entry is given as “No”.
Consider `CC(C)(O)c1cnc(NC(=O)c2ccc(F)c(Cl)c2)s1` [LDN-212255], for which, under setting [1], the pEC50 was 6.40 and the Emax turned out to be 117%. Moreover, for the setting “reporter assay, Table 6”, the Active result is reported as “Yes”.
On the same counts, the results for `COc1ccc(NC(=O)c2cc(C(C)C)on2)cc1OC` [CAL-26] are 4.03, 160% and “Yes”.
Regarding `CC(C)(O)c1sc(NC(=O)C2CCC(F)C(Cl)C2)nc1C(F)(F)F` (stereo not shown) [LDN-213766], for the setting “reporter assay, Table 6”, the Active entry is reported as “No”.
In the case of `CC(C)(C)c1cc(NC(=O)c2nc3ccccc3[nH]2)no1` [LDN-214095], the Active result (reporter assay, Table 6) is “No”.
For `COc1cc2c(c(OC)c1)C(c1cc3c(cc1Br)OCO3)CC(=O)N2` (stereo not shown) [CAL-52], the Active result (reporter assay, Table 6) is recorded as “No”.
As to `CC(C)(C)c1cc(NC(=O)c2ccc3ccccc3n2)no1` [LDN-211908], the Active entry (reporter assay, Table 6) is recorded as “No/Weak”.
On the same count and under the same terms, next, `CC(C)C1CC(C(=O)Nc2ccc(F)c(Cl)c2)=NO1` (stereo not shown) [LDN-211862]: “Nonspecific”.
With `CC1CC(C(=O)Nc2ccc(F)c(Cl)c2)=NO1` (stereo not shown) [CAL-8], under setting [1], the negative logarithm of the EC50 (pEC50) is 5.00 and the Emax was determined as 120%. Further, where the note is “reporter assay, Table 6”, the Active result was “Weak”.
Turning to `NC[C@H]1O[C@H](O[C@H]2[C@H](O)[C@@H](O[C@H]3O[C@H](CO)[C@@H](O)[C@H](N)[C@H]3O)[C@H](N)C[C@@H]2N)[C@H](N)C[C@@H]1O` [Tobramycin, tobramycin, reference compound], the “response of luciferase activity in the reporter cell lines” value (SMN1-luc and SMN2-luc cell lines, words) is “no response”. Moreover, where the note is “cell-based reporter response to known SMN2 modulating compounds”, the Max. fold increase result is “inactive ^a”. In addition, the EC50 entry (cell-based reporter, result in words) was “inactive ^a”.
`CC(C)c1cc(NC(=O)c2ccc(F)c(Cl)c2)on1` [LDN-211860]: under setting [1], the negative-log EC50 (pEC50) was 5.60 and the Emax was found to be 125%. In addition, the Active entry (reporter assay, Table 6) was “Yes”.
Turning to `COC1=CC2NC(=O)CC(c3cc(NC(C)=O)ccc3F)C2C(OC)=C1OC` (stereo not shown) [LDN-212360], the Active entry (reporter assay, Table 6) is given as “No”.
With `O=C1CC(c2cc(Br)ccc2F)c2c(ccc3ccccc23)N1` (stereo not shown) [LDN-212352], the Active result (reporter assay, Table 6) is on record as “No”.
In the case of `CC(=O)N1c2ccccc2C(Nc2ccccc2)CC1C` (stereo not shown) [Compound 66854], for the setting “reporter assay”, the “% activation” value was 210%.
With `CC(C)(C)c1cc(NC(=O)c2cc3ccccc3o2)no1` [LDN-211909], the Active entry (reporter assay, Table 6) is “No/Weak”.
As for `CC(C)c1cc(C(=O)Nc2ccc3ccccc3c2)no1` [LDN-211826], under setting [1], the pEC50 is 5.96 and the Emax worked out at 150%. The Active entry (reporter assay, Table 6) is listed as “Yes”.
Turning to `COC(=O)c1ccc2nc(NC(=O)C(C)C)sc2c1` [Compound 110116], where the note is “reporter assay”, the “% activation” value turned out to be 97%.
As to `COc1cc2c(c(OC)c1OC)C(c1ccccc1Cl)CC(=O)N2` (stereo not shown) [CAL-21], under setting [1], the pEC50 was 3.60 and the Emax was determined as 14%. Further, under “reporter assay, Table 6”, the Active result is on record as “Yes”.

For the origin of these results see patent US9212209B2, “Screening methods for spinal muscular atrophy” (Indiana University Research and Technology Corporation, priority 2012, dated 2015).
